Assays:
Type in all cases: cell-based, mouse
[1] = system: aryl hydrocarbon receptor (AhR); assay: DRESSA method: SEAP protein activity in conditioned medium of HeDS cells; settings: for induction of SEAP protein activity compared with DMSO control: HeDS cells stimulated by 1 μM
Protocol: Each cell clump is treated with trypsin to be removed, transferred to a 96-well culture plate every two wells, and cultured for one week continuously (S5). After the cells become confluent, the culture medium of each well is exchanged with 100 μl of α-MEM containing 1% FBS, and the cells are cultured for 24 hours in the presence or absence of 10 pM TCDD. Then, using 5 μl of the conditioned medium, a predetermined SEAP assay is performed to establish HeDS cells that react with a low concentration of dioxin with the highest sensitivity, and the cells are used for a dioxins sensing bioassay (S6). In this specification, the bioassay method is referred to as DRE-based Sensing of dioxin via Secreted Alkaline phosphatase (hereinafter, abbreviated as the DRESSA method).
Further, AhR14 forms a complex with Arnt15 that is a coactivator, enters the nuclear, and is combined with MMTV-DRE11 to activate. As a result, transcription of downstream SEAP gene 12 is promoted, messenger RNA 16 is produced and translated to protein 18 with ribosome 17, and the protein is promptly secreted outside the cell as a SEAP protein. Accordingly, by measuring the activity of the SEAP protein in the conditioned medium, it is possible to determine a level of dioxins to which the cells are exposed. First, HeDS cells with a concentration of 2×10^4/well are seeded in each well of a 96-well culture plate. As a culture medium, 100 μl of A-MEM containing […] is filled into each well (S1). After the cells are cultured for 24 hours to be fixed to the bottom of each well, the culture medium is exchanged, and 1 μl of a liquid sample containing TCDD is added (S2). After culturing for 24 hours, the conditioned medium is sampled every 5 μl (S3), and the SEAP protein activity is measured by procedures as described below.
(§1) The SEAP protein activity in the conditioned medium is determined as described below. To 5 μl of the conditioned medium is added 15 μl of buffer, the resultant is incubated at 65° C. for 30 minutes, and endogenous alkaline phosphatase activity is inactivated. Added further is 20 μl of buffer containing L-homoarginine that is an inhibitor of endogenous alkaline phosphatase, and the resultant is kept standing for 5 minutes. Then, 15 μl of substrate CSPD is added thereto, the resultant is kept standing at a dark place for 30 minutes, and the degree of chemical emission is measured by a luminometer.

[2] = system: aryl hydrocarbon receptor (AhR); assay: SEAP reporter plasmid comparison of sensor sequences (DRE, MMTV-DRE, MMTV) in Hepa-1c1c7 cells stimulated by TCDD
Protocol: SEAP reporter plasmids having MMTV-DRE or only DRE as a sensor sequence were prepared, and each of the plasmids was gene-introduced to a Hepa-1c1c7 cell. In addition, details of gene introduction will be described later. The cells were stimulated by TCDD, and increases in SEAP activity were compared. In the cell to which was introduced the SEAP reporter plasmid only having DRE as a sensor sequence, the SEAP activity increased by 4.5 times by the stimulus of TCDD.
In contrast thereto, in the cell (Hepa 1c1c7-DRE-SEAP cell, hereinafter, referred to as an HeDS cell) to which was introduced the SEAP reporter plasmid having MMTV-DRE as a sensor sequence, the SEAP activity increased by 43.2 times by the stimulus of TCDD. […] This means that the sequence of MMTV strongly amplifies the response of DRE to dioxin. The high reactivity of MMTV-DRE enables a fast assay with low cost.
as §1

[3] = system: aryl hydrocarbon receptor (AhR); assay: fast DRESSA method: floating HeDS cells, SEAP protein activity in conditioned medium
Protocol: as §1
In order to perform the above-mentioned DRESSA method easily and economically in a short time, it is possible to simplify the sensing procedures as described above, as shown in FIG. 1a. In other words, 50 μl of the culture medium containing 1 μl of sample is filled into each well of a 96-well culture plate, and immediately, HeDS cells floated in the culture medium are added (total 100 μl) (S1).
The conditioned medium is sampled three to four hours later (S2), and the SEAP protein activity is measured (S3). By using this scheme, it is possible to sense 1 pM of TCDD regarded as the sensing limit of the current method within four to five hours. Hereinafter, this method is referred to as a fast DRESSA method. The fast DRESSA method has no difference in sensing sensitivity from the DRESSA method.

## O=c1cc(-c2ccccc2)oc2ccc3ccccc3c12 [βNF, β-naphthoflavone]
[1]
  induction of SEAP protein activity compared with DMSO control: remarkable induction

## c1ccc2c(c1)cc1ccc3cccc4ccc2c1c34 [B[a]P, benzo[a]pyrene]
[1]
  induction of SEAP protein activity compared with DMSO control: remarkable induction

## Cc1ccc2cc3c(ccc4ccccc43)c3c2c1CC3 [3-MC, 3-methylcholanthrene]
[1]
  induction of SEAP protein activity compared with DMSO control: remarkable induction

## Clc1cc2c(cc1Cl)Oc1cc(Cl)c(Cl)cc1O2 [TCDD, 2,3,7,8-tetrachlorodibenzo-p-dioxin]
[2]; HeDS cell: SEAP reporter plasmid having MMTV-DRE as sensor sequence
  increase in SEAP activity by the stimulus of TCDD: 43.2 times
[2]; Hepa-1c1c7 cell with SEAP reporter plasmid only having DRE as sensor sequence
  increase in SEAP activity by the stimulus of TCDD: 4.5 times
[2]; cell with SEAP reporter plasmid only having MMTV as sensor sequence
  increase in SEAP activity by the stimulus of TCDD: did not increase
[1]; 6 pM TCDD, DMSO control, traced up to 10 hours
  time after addition at which significant increases in SEAP protein activity are observed: four
[1]; 1 nM TCDD, 50 cells in one well of a 96-well plate
  sensing with a reduced number of cells: can be sensed sufficiently
[1]; 5,000 HeDS cells
  concentration of TCDD possible to sense: 0.5 pM
[1]; HeDS cells exposed to 0 to 1 pM TCDD
  concentration at which significant increases in SEAP protein activity were already observed: 0.25 pM
[1]; HeDS cells, culture medium
  concentration up to which SEAP protein activity increases dependent on the concentration: up to 100 pM
[1]; TCDD stimulation, traced up to 72 hours
  time for which increases in SEAP protein activity continued before reaching equilibrium: 48 h
[3]; 6 pM TCDD
  time after addition at which significant increases in SEAP protein activity were already observed: three
[3]; 1 nM TCDD
  time after addition at which significant increases in SEAP protein activity were already observed: three
[3]; within four to five hours
  concentration of TCDD possible to sense: 1 pM
